Measured values taken from patent US20210238170A1, “5,5-Difluoro- and 5-Fluoro-5-Methyl-C-Glycoside Derivatives Useful As Dual SGLT1 / SGLT2 Modulators” (Janssen Pharmaceutica NV, priority 2018, published 2021).
Where two headings read alike, the source gives them in different places.

Experiments:
[1] = target: T1, human SGLT1 (Homo sapiens, UniProt P13866); assay: SGLT1 in vitro assay: Na-dependent 14C-AMG uptake in CHO-K1 cells stably expressing human SGLT1; assay type: cell-based; conditions: for inhibition at 0.3 µM: read-out: SGLT1 % Inh @ 0.3 μM; for IC50: compounds of formula (I) where R0 is fluoro
T1 construct: expressed in transfected cells
T1 sequence (P13866 1-664): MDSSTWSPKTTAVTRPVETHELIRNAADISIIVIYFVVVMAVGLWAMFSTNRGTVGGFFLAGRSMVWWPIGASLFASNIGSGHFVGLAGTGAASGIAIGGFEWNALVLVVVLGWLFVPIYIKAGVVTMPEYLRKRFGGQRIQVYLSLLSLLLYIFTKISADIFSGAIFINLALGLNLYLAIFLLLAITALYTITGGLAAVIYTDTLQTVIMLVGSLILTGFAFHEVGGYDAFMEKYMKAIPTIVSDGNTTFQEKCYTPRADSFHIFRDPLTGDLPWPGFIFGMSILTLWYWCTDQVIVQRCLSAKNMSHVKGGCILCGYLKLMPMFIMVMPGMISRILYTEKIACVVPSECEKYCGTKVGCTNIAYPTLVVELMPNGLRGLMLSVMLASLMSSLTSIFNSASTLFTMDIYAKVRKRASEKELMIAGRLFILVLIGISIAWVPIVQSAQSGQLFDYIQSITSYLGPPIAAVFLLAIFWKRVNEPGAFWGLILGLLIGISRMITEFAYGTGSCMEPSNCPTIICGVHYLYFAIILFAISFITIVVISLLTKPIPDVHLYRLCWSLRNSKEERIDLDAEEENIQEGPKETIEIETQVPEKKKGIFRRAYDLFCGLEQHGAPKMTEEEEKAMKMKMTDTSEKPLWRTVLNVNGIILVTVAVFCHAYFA
Method: (§1) Biological Example 1: SGLT1 and SGLT2 In Vitro Assays
(§2) The ability of the compounds of formula (I) of the present invention to treat an SGLT-mediated condition was determined using the following procedures:
(§3) SGLT1 and SGLT2 were cloned in form of cDNA from human small intestine (Genbank M24847), and from human kidney (Genbank M95549), respectively. Subsequently, each full cDNA was subcloned into pcDNA with each construct's integrity verified through follow-on sequencing. To generate CHO-K1 cells that stably express human SGLT1 or human SGLT2, CHO-K1 cells were transfected using DMRIE-C reagent (Life Technologies, Gaithersburg, Md.). Transfected cells were then selected in the presence of 500 μg/ml of the Geneticin (G418 Cellgro Catalog No. 30234-CI)
(§4) Individual clones were then characterized using the following cell-based assay for sodium-dependent glucose transport:
(§5) Inhibition of SGLT1 and SGLT2 activity was assessed in CHO K1 cells stably expressing either human SGLT1 or SGLT2, using the SGLT specific glucose analog methyl-glucopyranoside (Sigma Catalog No. M-9376). Cells were plated (45,000 cells/well) in white wall 96-well plates (COSTAR, Cat #3903) for 24 hours in growth medium, then a final concentration of 10 mM Na-Butyrate (ALDRICH Cat #30341-0) was added. The cells were incubated for 24 hours. On the day of the assay, cells were rinsed and treated with test compounds (at concentrations of 0.001 μM to 10 μM) in assay buffer (50 mM HEPES, 20 mM Tris base, 5 mM KCl, 1 mM MgCl2, 1 mM CaCl2 and 137 mM NaCl, pH 7.4) for 10 minutes. Cells were then incubated with ^14C-a-methyl-d-glucopyranoside (AMG, Amersham Catalog No. CFB 76), using 0.07 μCi per well in 500 µM AMG final concentration. The cells were incubated for 2 hours at 37° C. with 5% CO2 and washed two times with ice-cold Phosphate Buffer Solution (CELLGRO Catalog No. 21030-CV). The cells were then solubilized by adding 60 μl of MICROSCINT™ 20 and the Na-dependent ^14C-AMG uptake was quantified by measuring radioactivity. Plates were counted in a TopCount (Packard, Meriden, Conn.)
(§6) Representative compounds of the present invention were tested according to the procedures as described in Biological Example 1 and 2 above, with results as listed in Table 5, below. Results are reported as the %-inhibition or IC50 value. Variability for the functional assay was typically within 20%.

[2] = target: T2, human SGLT2 (Homo sapiens, UniProt P31639); assay: SGLT2 in vitro assay: Na-dependent 14C-AMG uptake in CHO-K1 cells stably expressing human SGLT2; assay type: cell-based; conditions: for inhibition at 0.3 µM: read-out: SGLT2 % Inh @ 0.3 μM; for IC50: compounds of formula (I) where R0 is fluoro
T2 construct: expressed in transfected cells
T2 sequence (P31639 1-672): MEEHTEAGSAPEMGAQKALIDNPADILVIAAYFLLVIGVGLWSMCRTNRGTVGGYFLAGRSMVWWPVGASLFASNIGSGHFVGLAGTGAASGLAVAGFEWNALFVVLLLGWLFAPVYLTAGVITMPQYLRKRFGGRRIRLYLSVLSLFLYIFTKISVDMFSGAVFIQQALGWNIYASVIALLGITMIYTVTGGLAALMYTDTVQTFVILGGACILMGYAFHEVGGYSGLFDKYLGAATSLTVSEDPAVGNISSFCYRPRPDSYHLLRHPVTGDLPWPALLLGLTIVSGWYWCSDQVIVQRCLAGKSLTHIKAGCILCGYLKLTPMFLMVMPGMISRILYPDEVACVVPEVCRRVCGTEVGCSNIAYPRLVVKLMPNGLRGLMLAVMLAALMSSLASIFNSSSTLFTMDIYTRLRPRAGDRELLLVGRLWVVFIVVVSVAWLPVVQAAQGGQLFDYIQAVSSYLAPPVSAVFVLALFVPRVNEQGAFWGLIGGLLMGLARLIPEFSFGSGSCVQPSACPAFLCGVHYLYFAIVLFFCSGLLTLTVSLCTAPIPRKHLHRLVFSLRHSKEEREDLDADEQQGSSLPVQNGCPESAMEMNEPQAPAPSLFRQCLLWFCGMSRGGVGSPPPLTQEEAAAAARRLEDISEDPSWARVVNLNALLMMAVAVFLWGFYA
Method: as §1, §2, §3, §4, §5, §6

[3] = @ 0.3 μM, CHO-K1 cells stably expressing human SGLT1, 14C-AMG uptake
[4] = CHO-K1 cells stably expressing human SGLT1, 14C-AMG uptake
[5] = @ 0.3 μM, CHO-K1 cells stably expressing human SGLT2, 14C-AMG uptake
[6] = CHO-K1 cells stably expressing human SGLT2, 14C-AMG uptake

Row | inhibition at 0.3 µM [1, 3] [%] | IC50 [1, 4] [nM] | inhibition at 0.3 µM [2, 5] [%] | IC50 [2, 6] [nM] | SGLT1 % Inh @ 0.3 μM [1, 3] [%] | SGLT2 % Inh @ 0.3 μM [2, 5] [%] | inhibition at 0.3 µM ([1]; 0.3 μM, CHO-K1 cells expressing human SGLT1) [%] | inhibition at 0.3 µM ([2]; 0.3 μM, CHO-K1 cells expressing human SGLT2) [%] | SMILES
1 | 56.6 | 221 | 48.6 | 4.3 |  |  |  |  | COc1cc(Cl)c(Cc2cc3ccccc3s2)cc1[C@@H]1O[C@H](CO)C(F)(F)[C@H](O)[C@H]1O [Compound 36, (2S,3R,4R,6R)-2-[5-(benzothiophen-2-ylmethyl)-4-chloro-2-methoxy-phenyl]-5,5-difluoro-6-(hydroxymethyl)tetrahydropyran-3,4-diol]
2 | 75.7 | 20 | 83.4 | 0.8 |  |  |  |  | OC[C@H]1O[C@@H](c2cc(Cc3ccc(Cl)s3)c(Cl)cc2O)[C@H](O)[C@@H](O)C1(F)F [Compound 167]
3 |  |  |  |  | 18.4 | 89.0 |  |  | OC[C@H]1O[C@@H](c2cc(Cc3ccc([C@@H]4CCOC4)cc3)c(Cl)cc2O)[C@H](O)[C@@H](O)C1(F)F [Compound 46]
4 |  | 505 |  | 5.5 | 50.3 | 85.4 |  |  | Cc1cc(O)c([C@@H]2O[C@H](CO)C(F)(F)[C@H](O)[C@H]2O)cc1Cc1cc2c(s1)CCN(C#N)C2 [Compound 82]
5 | 75 | 95 | 82.4 | 5.7 |  |  |  |  | Cc1cc(O)c([C@@H]2O[C@H](CO)C(F)(F)[C@H](O)[C@H]2O)cc1Cc1ccc(Cl)s1 [Compound 110]
6 | 81.1 | 72 | 85.5 | 1.9 |  |  |  |  | COc1cc(O)c([C@@H]2O[C@H](CO)C(F)(F)[C@H](O)[C@H]2O)cc1Cc1ccc(C2CC2)cc1 [Compound 140]
7 | 40.3 | 836 | 76.7 | 1.9 |  |  |  |  | COc1cc(C)c(Cc2ccc(OCF)cc2)cc1[C@@H]1O[C@H](CO)C(F)(F)[C@H](O)[C@H]1O [Compound 138]
8 | 67.6 | 142 | 89.2 | 2.6 |  |  |  |  | CCc1ccc(Cc2cc([C@@H]3O[C@H](CO)C(F)(F)[C@H](O)[C@H]3O)c(O)cc2Cl)cc1 [Compound 127, (2S,3R,4R,6R)-2-{4-chloro-5-[(4-ethylphenyl)methyl]-2-hydroxyphenyl}-5,5-difluoro-6-(hydroxymethyl)oxane-3,4-diol]
9 | 17.3 |  | 84.7 |  |  |  |  |  | Cc1cc(O)c([C@@H]2O[C@H](CO)C(F)(F)[C@H](O)[C@H]2O)cc1Cc1ccc(OC(F)(F)F)cc1 [Compound 99, (2S,3R,4R,6R)-5,5-difluoro-2-(2-hydroxy-4-methyl-5-(4-(trifluoromethoxy)benzyl)phenyl)-6-(hydroxymethyl)-tetrahydro-2H-pyran-3,4-diol]
10 | 71.8 | 112 | 89.7 | 2.6 |  |  |  |  | COc1cccc(Cc2cc([C@@H]3O[C@H](CO)C(F)(F)[C@H](O)[C@H]3O)c(O)cc2Cl)c1 [Compound 157]
11 |  |  |  |  | 24.3 | 79.9 |  |  | CCc1ccc(Cc2cc([C@@H]3O[C@H](CO)C(F)(F)[C@H](O)[C@H]3O)c(O)cc2C#N)cc1 [Compound 175]

More lines, now with the values behind:

Row | SMILES | inhibition at 0.3 µM [1, 3] [%] | IC50 [1, 4] [nM] | inhibition at 0.3 µM [2, 5] [%] | IC50 [2, 6] [nM] | SGLT1 % Inh @ 0.3 μM [1, 3] [%] | SGLT2 % Inh @ 0.3 μM [2, 5] [%] | inhibition at 0.3 µM ([1]; 0.3 μM, CHO-K1 cells expressing human SGLT1) [%] | inhibition at 0.3 µM ([2]; 0.3 μM, CHO-K1 cells expressing human SGLT2) [%]
12 | COc1cc(OC)c([C@@H]2O[C@H](CO)C(F)(F)[C@H](O)[C@H]2O)cc1Cc1ccc(OC(F)(F)F)cc1 [Compound 121] |  |  |  |  | 20.2 | 63.6 |  | 
13 | COc1cc(Cl)c(Cc2ccc([C@@H]3CCOC3)cc2)cc1[C@@H]1O[C@H](CO)C(F)(F)[C@H](O)[C@H]1O [Compound 50] |  |  |  |  | 20.4 | 84.4 |  | 
14 | CCc1cc(OC)c([C@@H]2O[C@H](CO)C(F)(F)[C@H](O)[C@H]2O)cc1Cc1ccc(OC(F)(F)F)cc1 [Compound 109] |  |  |  |  | 27.4 | 70.5 |  | 
15 | OC[C@H]1O[C@@H](c2cc3c(c(Cc4ccc(C5CC5)cc4)c2)OCC3)[C@H](O)[C@@H](O)C1(F)F [Compound 174] |  |  |  |  | 38.0 | 82.9 |  | 
16 | CCc1ccc(Cc2cc([C@@H]3O[C@H](CO)C(F)(F)[C@H](O)[C@H]3O)c(OC)cc2Cl)cc1 [Compound 135] |  |  |  |  | 16.5 | 88.0 |  | 
17 | COc1cc(OC)c([C@@H]2O[C@H](CO)[C@@](C)(F)[C@H](O)[C@H]2O)cc1Cc1ccc2c(c1)OCCO2 [Compound 9, (2S,3R,4R,5S,6R)-2-[5-(2,3-dihydro-1,4-benzodioxin-6-ylmethyl)-2,4-dimethoxy-phenyl]-5-fluoro-6-(hydroxymethyl)-5-methyl-tetrahydropyran-3,4-diol] |  |  |  |  |  |  | 25.3 | 58.7
18 | OC[C@H]1O[C@@H](c2cc(Cc3ccc(C4CC4)cc3)c(C3CC3)cc2O)[C@H](O)[C@@H](O)C1(F)F [Compound 141] | 78.8 | 95 | 82.8 | 44.9 |  |  |  | 
19 | COC(=O)N1CCc2sc(Cc3cc([C@@H]4O[C@H](CO)C(F)(F)[C@H](O)[C@H]4O)c(OC)cc3Cl)cc2C1 [Compound 65] |  |  |  |  | 16.9 | 56.1 |  | 
20 | COc1c(Cc2ccc3c(c2)CCCO3)cc([C@@H]2O[C@H](CO)C(F)(F)[C@H](O)[C@H]2O)c2c1CCO2 [Compound 93] |  |  |  |  | 34.5 | 80.4 |  | 
21 | COc1cc(OC)c([C@@H]2O[C@H](CO)C(F)(F)[C@H](O)[C@H]2O)cc1Cc1ccc2c(c1)OCCO2 [Compound 55, (2S,3R,4R,6R)-2-[5-(2,3-dihydro-1,4-benzodioxin-6-ylmethyl)-2,4-dimethoxy-phenyl]-5,5-difluoro-6-(hydroxymethyl)tetrahydropyran-3,4-diol] | 15.8 |  | 84.2 |  |  |  |  | 
22 | CCc1ccc(Cc2cc(C3OC(CO)C(F)(F)C(O)C3O)cc3c2OCC3CO)cc1 (mixture of isomers) [Compound 61] |  |  |  |  | 32.2 | 58.0 |  | 
